In patent US6335337B1, “Substituted piperazinones and their therapeutic uses” (Laboratoire L. Lafon, priority 1998, dated 2002):
Where a name gives a salt, the structure may show the parent alone.

Key:
Guinea Pig Platelets = test: In vitro inhibition of collagen-induced platelet aggregation, guinea pig platelet-rich plasma; assay type: cell-based; details: guinea pig PRP, collagen 1 μg/ml, 3 minutes of contact at 37° C.
Description: A study of the inhibitory activity of the compounds of formula (I) on platelet aggregation was carried out in vitro, i.e. by direct contact of solutions of variable concentrations of the compounds with platelets freshly separated from a sample of total blood, taken under standardized conditions, from laboratory animals (guinea pigs) and from healthy human subjects who have not received any substances or drugs that might interfere with blood clotting. The anti-platelet-aggregating activity was also studied ex vivo/vitro, i.e. after administration of the substances claimed to guinea pigs to measure the intensity and duration of the anti-aggregating action induced by the fraction of the test product absorbed and circulating in the blood.
Blood is taken by intracardiac puncture from male Dunkin-Hartley guinea pigs (weighing about 330 g), at a rate of 4.5 ml per 0.5 ml of trisodium citrate (concentration of the aqueous solution: 1.55%;) in order to prevent all trace of clotting. The platelet-rich plasma (PRP) is obtained by centrifuging the tubes of total blood for 15 minutes at 150 g.
The PRPs are collected as “pools”. The platelets contained in these pools are counted using a Coulter ZM haematology automatic device: if necessary, a dilution is carried out in order for the platelet concentration in the plasma to be between 200000 and 400000 platelets/mm^3. Simultaneously, other samples of these pools serve to prepare the platelet-poor plasma (PPP) by centrifugation at 1500 g for 15 minutes.
The kinetic study of the platelet aggregation is carried out by adding a collagen solution (1 μg/ml) to a volume of PRP, using a Chrono-log Corporation aggregometer (490-D1, or 560 VS) which uses an optical detection of the appearance of the thrombus.
The determination of the 50%; inhibitory concentration (IC50) is carried out by adding a given volume of solvent (control reference) and increasing concentrations: 1.5×10^−8 M, 7×10^−8 M, 1.5×10^−7 M, 3×10^−7 M, 7×10^−7 M, 1.5×10^−6 M and […], of the compounds to samples of the pools of PRP. The measurements of the aggregation inhibition are carried out after 3 minutes of contact at 37° C. with agitation.

Human Platelets = test: In vitro inhibition of collagen-induced platelet aggregation, human platelet-rich plasma; assay type: cell-based; details: 0.05 h, human PRP, collagen 5 μg/ml, 3 minutes of contact at 37° C., read-out: IC50(M) in vitro Man
Description: A study of the inhibitory activity of the compounds of formula (I) on platelet aggregation was carried out in vitro, i.e. by direct contact of solutions of variable concentrations of the compounds with platelets freshly separated from a sample of total blood, taken under standardized conditions, from laboratory animals (guinea pigs) and from healthy human subjects who have not received any substances or drugs that might interfere with blood clotting. The anti-platelet-aggregating activity was also studied ex vivo/vitro, i.e. after administration of the substances claimed to guinea pigs to measure the intensity and duration of the anti-aggregating action induced by the fraction of the test product absorbed and circulating in the blood. Venous blood is taken from a group of ten healthy human subjects of the same age, by puncture into a vein of the fold of the elbow and is collected in a glass tube containing aqueous 0.129 M sodium citrate solution (1 volume of citrate solution per 9 volumes of blood). Each tube is then centrifuged a first time at 20° C. and 100 g for 15 minutes in order to obtain the platelet-rich plasma (PRP); after removing this PRP, the tube is again centrifuged at 2000 g for 15 minutes in order this time to remove the platelet-poor plasma (PPP). For each identified sample of PRP, the platelets are counted using a Coulter ZM counter. Each sample is then used to study the variation in inhibition of the platelet aggregation triggered by the addition of a Chromo-par-Reagent collagen glucose solution from Coultronics (used at a concentration of 5 μg/ml) as a function of the addition of increasing concentrations of each compound in a range covering the interval 10^-8 M→10^-5 M, (example of concentrations: 10^-8 […]). Beforehand, for each compound, an aqueous 10^-3 M solution is prepared. A control test intended to check the possible effect of the solvents (reference value) on the platelet aggregation is introduced into each measurement series, and the aggregation is measured after 3 minutes of contact at 37° C. with agitation. From the percentages of inhibition of the platelet aggregation measured for each concentration of each compound, the 50%; inhibitory concentration (IC50) is calculated.

[1] = Cavia porcellus, Platelet, 0.05 h

IC50 (Guinea Pig Platelets; [1]) | IC50 (Human Platelets) | Structure (SMILES) | IC50 (Guinea Pig Platelets)
1.6 µM | – | CCOC(=O)[C@H](CNC(=O)CN1CCN(c2ccc(C(=N)N3CCCCC3)cc2)CC1=O)NS(=O)(=O)c1ccc(C)cc1 [Example 41, Ethyl (2S)-3-{[2-(4-{4-[imino(piperidino)methyl]phenyl}-2-oxopiperazino)acetyl]amino}-2-{[4-toluenesulphonyl]amino}propanoate] | –
1.8 µM | 5.3e-06 M | CCOC(=O)[C@H](CNC(=O)CN1CCN(c2ccc(C(=N)N)cc2)C(=O)C1)NS(=O)(=O)c1ccccc1 [Example 29, Ethyl (2S)-3-{[2-(4-{4-[amino(imino)methyl]phenyl}-3-oxopiperazino)acetyl]amino}-2-[(phenylsulphonyl)amino]propanoate acetate] | –
0.42 µM | 1.8e-05 M | CCOC(=O)[C@H](CNC(=O)CN1CCN(c2ccc(C(=N)N)cc2)CC1=O)NS(=O)(=O)c1ccc(C)cc1 [Example 23, Ethyl (2S)-3-{[2-(4-{4-[amino(imino)methyl]phenyl}-2-oxopiperazino)acetyl]amino}-2-{[4-toluenesulphonyl]amino}propanoate acetate] | –
0.094 µM | 1.2e-07 M | N=C(N)c1ccc(N2CCN(CC(=O)NC[C@H](NS(=O)(=O)c3ccccc3)C(=O)O)C(=O)C2)cc1 [Example 30, (2S)-3-{[2-(4-{4-[amino(imino)methyl]phenyl}-2-oxopiperazino)acetyl]amino}-2-[(phenylsulphonyl)amino]propanoic acid hydrochloride] | –
0.11 µM | 1e-05 M | CCOC(=O)[C@H](CNC(=O)CN1CCN(c2ccc(C(=N)N)cc2)CC1=O)NS(=O)(=O)c1ccccc1 [Example 17, ethyl (2S)-3-{[2-(4-{4-[amino(imino)methyl]phenyl}-2-oxopiperazino)acetyl]amino}-2-[(phenylsulphonyl)amino]propanoate acetate] | –
0.32 µM | 9.3e-06 M | CCOC(=O)[C@H](CNC(=O)CN1CCN(c2ccc(C(=N)N)cc2)CC1=O)NS(=O)(=O)c1ccc(Cl)cc1 [Example 24, Ethyl (2S)-3-{[2-(4-{4-[amino(imino)methyl]phenyl}-2-oxopiperazino)acetyl]amino}-2-{[(4-chlorophenyl)sulphonyl]amino}propanoate acetate] | –
0.31 µM | 3.4e-07 M | Cc1ccc(S(=O)(=O)N[C@@H](CNC(=O)CN2CCN(c3ccc(C(=N)N)cc3)CC2=O)C(=O)O)cc1 [Example 31, (2S)-3-{[2-(4-{4-[Amino(imino)methyl]phenyl}-2-oxopiperazino)acetyl]amino}-2-{[4-toluenesulphonyl]amino}propanoic acid hydrochloride] | –
– | – | CCOC(=O)[C@H](CNC(=O)CN1CCN(c2ccc(C(=N)N3CCOCC3)cc2)CC1=O)NS(=O)(=O)c1ccc(C)cc1 [Example 40] | 1 µM
0.2 µM | 9.5e-05 M | CCOC(=O)[C@H](CNC(=O)CN1CCN(c2ccc(C(=N)N)cc2)CC1=O)NS(=O)(=O)c1ccc2ccccc2c1 [Example 25, Ethyl (2S)-3-{[2-(4-{4-[amino(imino)methyl]phenyl}-2-oxopiperazino)acetyl]amino}-2-[(2-naphthylsulphonyl)amino]propanoate acetate] | –
0.25 µM | 8.2e-06 M | CCOC(=O)[C@H](CNC(=O)CN1CCN(c2ccc(C(=N)N)cc2)CC1=O)NS(=O)(=O)c1cccc2c1NCCC2 [Example 19, Ethyl (2S)-3-{[2-(4-{4-[amino(imino)methyl]phenyl}-2-oxopiperazino)acetyl]amino}-2-[(1,2,3,4-tetrahydro-8-quinolinylsulphonyl)amino]propanoate acetate] | –
0.91 µM | 3.2e-05 M | CCOC(=O)[C@H](CNC(=O)CN1CCN(c2ccc(C(=N)N)cc2)CC1=O)NS(=O)(=O)c1cccnc1 [Example 18, Ethyl (2S)-3-{[2-(4-{4-[amino(imino)methyl]phenyl}-2-oxopiperazino)acetyl]amino}-2-[(3-pyridylsulphonyl)amino]propanoate diacetate] | –

Structure (SMILES) | IC50 (Guinea Pig Platelets; [1]) | IC50 (Human Platelets) | IC50 (Guinea Pig Platelets)
CCOC(=O)[C@H](CNC(=O)CN1CCN(c2ccc(C(=N)N)cc2)CC1=O)NC(=O)OCC(C)C [Example 26, Ethyl (2S)-3-{[2-(4-{4-[amino(imino)methyl]phenyl}-2-oxopiperazino)acetyl]amino}-2-[(isobutoxycarbonyl)amino]propanoate acetate] | 0.4 µM | 5.7e-06 M | –
